Patent US10750743B2, “Pyridazinone herbicides” (E.I. DU PONT DE NEMOURS AND COMPANY, priority 2015, dated 2020)

Legend:
Assay type in all cases: in vivo
[1] = tested on: rice (Oryza sativa); experiment: Test B flooded paddy test, visual rating; conditions: Flood, 250 g ai/ha, applied to paddy water, rated after 13 to 15 d
Summary of the method: (§1)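 Ratings use a 0-100 visual scale, where 100 is complete control, and compare treated plants with controls after 13 to 15 d of greenhouse growth. Compound went straight into paddy water kept 3 cm over the soil surface, applied to seedlings at the 2-leaf stage.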

[2] = tested on: ducksalad (Heteranthera limosa); experiment: Test B flooded paddy test, visual rating; conditions: Flood, 250 g ai/ha, applied to paddy water, rated after 13 to 15 d
Summary of the method: as §1

[3] = tested on: sedge, umbrella (small-flower umbrella sedge, Cyperus difformis); experiment: Test B flooded paddy test, visual rating; conditions: Flood, 250 g ai/ha, applied to paddy water, rated after 13 to 15 d
Summary of the method: as §1

[4] = tested on: barnyardgrass (Echinochloa crus-galli); experiment: Test B flooded paddy test, visual rating; conditions: Flood, 250 g ai/ha, applied to paddy water, rated after 13 to 15 d
Summary of the method: as §1

[5] = tested on: ragweed (common ragweed, Ambrosia elatior); experiment: Test A preemergence, directed soil spray, visual injury rating; conditions: 0 is no effect, 100 is complete control
Summary of the method: (§2)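 Injury ratings, 0 (no effect) to 100 (complete control), were scored visually versus untreated plants roughly 10 d after treatment under greenhouse conditions. Treatments used surfactant-containing solvent formulations, sprayed onto soil preemergence or onto one- to two-leaf seedlings (2-10 cm) postemergence, grown in a loam-sand mix.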

[6] = tested on: Foxtail, Green; experiment: as above; conditions: 0 is no effect, 100 is complete control
[7] = tested on: ryegrass, It. (Italian ryegrass, Lolium multiflorum); experiment: as above; conditions: 0 is no effect, 100 is complete control
Summary of the method: as §2

[8] = tested on: kochia (Kochia scoparia); experiment: as above; conditions: 0 is no effect, 100 is complete control
Summary of the method: as §2

[9] = tested on: barnyardgrass (Echinochloa crus-galli); experiment: as above; conditions: 0 is no effect, 100 is complete control
Summary of the method: as §2

[10] = tested on: pigweed (Amaranthus retroflexus); experiment: as above; conditions: 0 is no effect, 100 is complete control
Summary of the method: as §2

[11] = tested on: ragweed (common ragweed, Ambrosia elatior); experiment: Test A postemergence application, visual injury rating; conditions: 0 to 100 scale, 0 no effect, 100 complete control
Summary of the method: as §2

[12] = tested on: Foxtail, Green; experiment: as above; conditions: 0 to 100 scale, 0 no effect, 100 complete control
[13] = tested on: wheat (Triticum aestivum); experiment: as above; conditions: 0 to 100 scale, 0 no effect, 100 complete control
Summary of the method: as §2

[14] = tested on: ryegrass, It. (Italian ryegrass, Lolium multiflorum); experiment: as above; conditions: 0 to 100 scale, 0 no effect, 100 complete control
Summary of the method: as §2

[15] = tested on: kochia (Kochia scoparia); experiment: as above; conditions: 0 to 100 scale, 0 no effect, 100 complete control
Summary of the method: as §2

[16] = tested on: blackgrass (Alopecurus myosuroides); experiment: as above; conditions: 0 to 100 scale, 0 no effect, 100 complete control
Summary of the method: as §2

[17] = tested on: barnyardgrass (Echinochloa crus-galli); experiment: as above; conditions: 0 to 100 scale, 0 no effect, 100 complete control
Summary of the method: as §2

[18] = tested on: pigweed (Amaranthus retroflexus); experiment: as above; conditions: 0 to 100 scale, 0 no effect, 100 complete control
Summary of the method: as §2

[19] = tested on: corn (Zea mays); experiment: as above; conditions: 0 to 100 scale, 0 no effect, 100 complete control
Summary of the method: as §2

[20] = tested on: galium (catchweed bedstraw, Galium aparine); experiment: as above; conditions: 0 to 100 scale, 0 no effect, 100 complete control
Summary of the method: as §2

SMILES | Rice plant response rating (0 to 100 scale, 0 is no effect, 100 is complete control) [1] | Ducksalad plant response rating (0 to 100 scale, 0 is no effect, 100 is complete control) [2] | Sedge, Umbrella plant response rating (0 to 100 scale, 0 is no effect, 100 is complete control) [3] | Barnyardgrass plant response rating (0 to 100 scale, 0 is no effect, 100 is complete control) [4] | Plant response rating (0 to 100 scale), Ragweed ([5]; 31 g ai/ha) | Plant response rating (0 to 100 scale), Ragweed ([5]; 125 g ai/ha) | Plant response rating (0 to 100 scale), Foxtail, Green ([6]; 31 g ai/ha) | Plant response rating (0 to 100 scale), Foxtail, Green ([6]; 125 g ai/ha) | Plant response rating (0 to 100 scale), Ryegrass, It. ([7]; 31 g ai/ha) | Plant response rating (0 to 100 scale), Ryegrass, It. ([7]; 125 g ai/ha) | Plant response rating (0 to 100 scale), Kochia ([8]; 31 g ai/ha) | Plant response rating (0 to 100 scale), Kochia ([8]; 125 g ai/ha) | Plant response rating (0 to 100 scale), Barnyardgrass ([9]; 31 g ai/ha) | Plant response rating (0 to 100 scale), Barnyardgrass ([9]; 125 g ai/ha) | Plant response rating (0 to 100 scale), Pigweed ([10]; 31 g ai/ha) | Plant response rating (0 to 100 scale), Pigweed ([10]; 125 g ai/ha) | Ragweed plant response rating ([11]; 31 g ai/ha) | Ragweed plant response rating ([11]; 125 g ai/ha) | Foxtail, Green plant response rating ([12]; 31 g ai/ha) | Foxtail, Green plant response rating ([12]; 125 g ai/ha) | other results
CCC(=O)Oc1c(C)nn(C)c(=O)c1-c1c(C(F)(F)F)ccc2cc(C)oc12 [Compound 47] | 0 | 0 | 0 | 0 | 20 | 80 | 0 | 0 | 0 | 80 | 40 | 50 | 0 | 30 | 60 | 100 | 40 | 80 | 0 | 10 | Wheat plant response rating ([13]; 31 g ai/ha): 0; Wheat plant response rating ([13]; 125 g ai/ha): 0; Ryegrass, It. plant response rating ([14]; 31 g ai/ha): 0; Ryegrass, It. plant response rating ([14]; 125 g ai/ha): 30; Kochia plant response rating ([15]; 31 g ai/ha): 40; Kochia plant response rating ([15]; 125 g ai/ha): 70; Blackgrass plant response rating ([16]; 125 g ai/ha): 0; Barnyardgrass plant response rating ([17]; 31 g ai/ha): 0; Barnyardgrass plant response rating ([17]; 125 g ai/ha): 10; Pigweed plant response rating ([18]; 31 g ai/ha): 90; Pigweed plant response rating ([18]; 125 g ai/ha): 90; Corn plant response rating ([19]; 31 g ai/ha): 0; Corn plant response rating ([19]; 125 g ai/ha): 0; Galium plant response rating ([20]; 31 g ai/ha): 70; Galium plant response rating ([20]; 125 g ai/ha): 80
CC(=O)Oc1c(C)nn(C)c(=O)c1-c1c(C(F)(F)F)ccc2cc(C)oc12 [Compound 48] | 0 | 0 | 0 | 0 | 0 | 90 | 0 | 20 | 10 | 20 | 10 | 20 | 0 | 20 | 20 | 100 | 70 | 90 | 0 | 10 | Wheat plant response rating ([13]; 31 g ai/ha): 0; Wheat plant response rating ([13]; 125 g ai/ha): 0; Ryegrass, It. plant response rating ([14]; 31 g ai/ha): 0; Ryegrass, It. plant response rating ([14]; 125 g ai/ha): 30; Kochia plant response rating ([15]; 31 g ai/ha): 50; Kochia plant response rating ([15]; 125 g ai/ha): 70; Blackgrass plant response rating ([16]; 31 g ai/ha): 0; Blackgrass plant response rating ([16]; 125 g ai/ha): 0; Barnyardgrass plant response rating ([17]; 31 g ai/ha): 0; Barnyardgrass plant response rating ([17]; 125 g ai/ha): 10; Pigweed plant response rating ([18]; 31 g ai/ha): 70; Pigweed plant response rating ([18]; 125 g ai/ha): 100; Corn plant response rating ([19]; 31 g ai/ha): 0; Corn plant response rating ([19]; 125 g ai/ha): 20; Galium plant response rating ([20]; 31 g ai/ha): 80; Galium plant response rating ([20]; 125 g ai/ha): 80
